This passage reports IC50 results from US8420657B2 (Novartis AG, priority 2008, dated 2013).

The structures appear in SMILES notation. Where only a bound is given, the exact number is not on record here.

The target in this experiment is T1, GST-JAK2(808-1132) (Homo sapiens, UniProt O60674).
T1 construct: GST-JAK2(808-1132); purchased Invitrogen (Carlsbad, USA) #4288
T1 sequence (O60674 808-1132): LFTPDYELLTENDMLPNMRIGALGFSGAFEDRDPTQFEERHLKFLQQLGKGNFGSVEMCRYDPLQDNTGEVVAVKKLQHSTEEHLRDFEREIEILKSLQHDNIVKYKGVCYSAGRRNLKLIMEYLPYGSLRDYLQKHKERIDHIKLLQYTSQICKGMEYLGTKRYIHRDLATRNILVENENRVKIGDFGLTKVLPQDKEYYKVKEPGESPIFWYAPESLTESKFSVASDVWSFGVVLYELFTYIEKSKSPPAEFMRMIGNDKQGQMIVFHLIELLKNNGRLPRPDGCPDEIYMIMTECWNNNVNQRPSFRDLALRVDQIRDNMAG
In words: JAK2 kinase assay (Caliper mobility shift, LabChip 3000). The format is biochemical. From the text:
All four kinases of the JAK/TYK-kinase family were used as purified recombinant GST-fusion proteins, containing the active kinase domains. GST-JAK1 (866-1154), GST-JAK3(811-1124), and GST-TYK2(888-1187) were expressed and purified by affinity chromatography at the EPK biology unit. GST-JAK2(808-1132) was purchased from Invitrogen (Carlsbad, USA, #4288).
The kinase assays were based on the Caliper mobility shift assay using the LabChip 3000 systems. This technology is similar to capillary electrophoresis and uses charge driven separation of substrate and product in a microfluidic chip.
All kinase reactions were performed in 384 well microtiter plates in a total reaction volume of 18 μl. The assay plates were prepared with 0.1 μl per well of test compound in the appropriate test concentration, as described under the section “preparation of compound dilutions”. The reactions were started by combining 9 μl of substrate mix (consisting of peptide and ATP) with 9 μl of kinase dilution. The reactions were incubated for 60 minutes at 30° C. and stopped by adding 70 μl of stop buffer (100 mM Hepes, 5% DMSO, 0.1% Coating reagent, 10 mM EDTA, 0.015% Brij 35).
Fluorescently labeled synthetic peptides were used as substrates in all reactions. A peptide derived from the sequence of IRS-1(IRS-1 peptide, SEQ ID NO: 1 FITC-Ahx-KKSRGDYMTMQIG-NH2) was used for JAK1 and TYK2 and a peptide named JAK3tide SEQ ID NO: 2 (FITC-GGEEEEYFELVKKKK-NH2) for JAK2 and JAK3. Specific assay conditions are described in Table1:
The terminated reactions were transferred to the Caliper LabChip 3000 reader and the turnover of each reaction was measured by determining the substrate/product ratio.
Test compounds were dissolved in DMSO (10 mM) and transferred into 1.4 mL flat bottom or V-shaped Matrix tubes carrying a unique 2D matrix chip by individual compound hubs. The numbers of these chips were distinctively linked to the individual compound identification numbers. The stock solutions were stored at −20° C. if not used immediately. For the test procedure the vials were defrosted and identified by a scanner whereby a working sheet was generated that guided the subsequent working steps. Compound dilutions were made in 96 well plates. This format enabled the assay of maximally 40 individual test compounds at 8 concentrations (single points) including 4 reference compounds. The dilution protocol included the production of pre-dilution plates, master plates and assay plates:
Pre-dilution plates: 96 polypropylene well plates were used as pre-dilution plates. A total of 4 pre-dilution plates were prepared including 10 test compounds each on the plate positions A1-A10, one standard compound at A11 and one DMSO control at A12. All dilution steps were done on a HamiltonSTAR robot.
Master plates: 100 μL of individual compound dilutions including standard compound and controls of the 4 “pre-dilution plates” were transferred into a 384 “master plate” including the following concentrations 1,820, […], 182, 54.6, 18.2, 5.46, 1.82 and 0.546 μM, respectively in 90% of DMSO.
Assay plates: Identical assay plates were then prepared by pipetting 100 nL each of compound dilutions of the master plates into 384-well “assay plates”. In the following the compounds were mixed with 9 μL of assays components plus 9 μL enzyme corresponding to a 1:181 dilution steps enabling the final concentration of 10, 3.0, 1.0, 0.3, 0.1, 0.03, 0.01 and 0.003 μM, respectively. The preparation of the master plates were handled by the Matrix PlateMate Plus robot and replication of assay plates by the HummingBird robot.
Regarding `CN1CCN(c2ccc(Nc3ncc4ccn(-c5cc(F)c(CN6CCNC(=O)C6)c(F)c5)c4n3)cc2)CC1` [Example 341, 4-(2,6-Difluoro-4-{2-[4-(4-methyl-piperazin-1-yl)-phenylamino]-pyrrolo[2,3-d]pyrimidin-7-yl}-benzyl)-piperazin-2-one], the IC50 is ≤ 3 nM.
On to `COc1ccc(Nc2ncc3ccn(-c4ccc(S(C)(=O)=O)cc4)c3n2)cc1O` [Example 24, 5-[7-(4-Methanesulfonyl-phenyl)-7H-pyrrolo[2,3-d]pyrimidin-2-ylamino]-2-methoxy-phenol], for which the IC50 stood at 3.5 nM.
As for `CN1CCN(Cc2ccc(Nc3ncc4ccn(-c5cc(F)c(C(=O)N6CCOCC6)c(F)c5)c4n3)cc2)CC1` [Example 205, (2,6-Difluoro-4-{2-[4-(4-methyl-piperazin-1-ylmethyl)-phenylamino]-pyrrolo[2,3-d]pyrimidin-7-yl}-phenyl)-morpholin-4-yl-methanone], the figure is 5 nM; as for `COc1ccc(Nc2ncc3ccn(-c4ccc(S(C)(=O)=O)cc4)c3n2)cc1OCCN(C)C` [Example 26, [3-(2-Dimethylamino-ethoxy)-4-methoxy-phenyl]-[7-(4-methanesulfonyl-phenyl)-7H-pyrrolo[2,3-d]pyrimidin-2-yl]-amine], < 3 nM; as for `Cc1ccc(Nc2ncc3ccn(-c4ccc(S(C)(=O)=O)cc4)c3n2)cc1CN1CCOCC1` [Example 328, [7-(4-Methanesulfonyl-phenyl)-7H-pyrrolo[2,3-d]pyrimidin-2-yl]-(4-methyl-3-morpholin-4-ylmethyl-phenyl)-amine], 16 nM.
As for `Cc1cc(C#N)ccc1-n1ccc2cnc(Nc3ccc(N4CCN(C)CC4)nc3)nc21` [Example 439, 3-Methyl-4-{2-[6-(4-methyl-piperazin-1-yl)-pyridin-3-ylamino]-pyrrolo[2,3-d]pyrimidin-7-yl}-benzonitrile], the figure is 19 nM; as for `C[C@@H]1CN(Cc2ccc(Nc3ncc4ccn(-c5cc(F)c(CN6CCOCC6)c(F)c5)c4n3)cc2)C[C@H](C)N1` [Example 254], < 3 nM; as for `CS(=O)(=O)c1ccc(-n2ccc3cnc(Nc4cccc(OCCN5CCOCC5)c4)nc32)cc1` [Example 35, [7-(4-Methanesulfonyl-phenyl)-7H-pyrrolo[2,3-d]pyrimidin-2-yl]-[3-(2-morpholin-4-yl-ethoxy)-phenyl]-amine], 4.9 nM.
With `CS(=O)(=O)c1ccc(-n2ccc3cnc(Nc4ccc(N5CCNCC5)cc4)nc32)cc1` [Example 37, [7-(4-Methanesulfonyl-phenyl)-7H-pyrrolo[2,3-d]pyrimidin-2-yl]-(4-piperazin-1-yl-phenyl)-amine] the figure was < 3 nM; with `CN1CCN(Cc2ccc(Nc3ncc4ccn(-c5cc(F)c(C(=O)N6CCOCC6)c(F)c5)c4n3)cc2C(F)(F)F)CC1` [Example 204, (2,6-Difluoro-4-{2-[4-(4-methyl-piperazin-1-ylmethyl)-3-trifluoromethyl-phenylamino]-pyrrolo[2,3-d]pyrimidin-7-yl}-phenyl)-morpholin-4-yl-methanone], < 3 nM; with `O=S1(=O)CCN(Cc2c(F)cc(-n3ccc4cnc(Nc5ccnc(N6CCNC7(CC7)C6)c5)nc43)cc2F)CC1` [Example 442], ≤ 3 nM.
Regarding `COc1ccc(Nc2ncc3ccn(-c4ccc(S(C)(=O)=O)cc4)c3n2)c(OC)c1` [Example 22, (2,4-Dimethoxy-phenyl)-[7-(4-methanesulfonyl-phenyl)-7H-pyrrolo[2,3-d]pyrimidin-2-yl]-amine], the IC50 is 170 nM.
Consider `CS(=O)(=O)c1ccc(-n2ccc3cnc(Nc4ccc5c(c4)OC(F)(F)C(F)(F)O5)nc32)cc1` [Example 14, [7-(4-Methanesulfonyl-phenyl)-7H-pyrrolo[2,3-d]pyrimidin-2-yl]-(2,2,3,3-tetrafluoro-2,3-dihydro-benzo[1,4]dioxin-6-yl)-amine], for which the IC50 was determined as 2100 nM.
